Measurements as given in patent US20160115540A1, “PRODRUGS AND DRUGS” (Biogen MA Inc., priority 2013, published 2016).
Structures can show the parent of a compound that is named as a salt.

Test system: blood and tissues
Experiment: Transcriptional profiling, acute (single) dosing, EAE mice: blood and tissues
Assay type: in vivo
Settings: for Number of differentially expressed genes identified: Brain / Number of differentially expressed genes identified: Cerebellum / Number of differentially expressed genes identified: Lymph Node / Number of differentially expressed genes identified: Spleen / Number of differentially expressed genes identified: Whole blood / Number of differentially expressed genes identified: Spinal Cord: EAE, Acute Dosing
Description: EAE induction is generally performed by immunization with brain extracts, CNS proteins (such as myelin basic protein), or peptides from such protein emulsified in an adjuvant such as complete Freund's adjuvant, e.g., as described in Linker et al., Brain. 2011 March 134(Pt3): 678-92. […] FIG. 17 depicts exemplary immunophenotyping panels used to analyze various immune cell populations (e.g., T cells, T regulatory cells, NK cells, B cells, myeloid cells). […] The number of independent mice whose tissues were harvested for transcript profiling studies and whose data passed QC is shown in TABLE 15. Animals were exposed to CO2 and whole blood collected via cardiac puncture. Two 100 μl aliquots of whole blood were collected in 1.5 mL microcentrifuge tubes and snap frozen in liquid nitrogen. Peripheral (liver, spleen, kidney and jejunum) and CNS brain (cerebellum, hippocampus, striatum and cortex) tissues were harvested and snap frozen in liquid nitrogen, with special care taken to collect tissues of similar size and from the same location. All samples were stored at -80° C. until RNA extraction was conducted. For RNA preparation, frozen tissues were placed in 2 mL RNAse-free 96-well blocks with 1.5 mL QIAzol Lysis Reagent (QIAgen) and a 3.2 mm stainless steel bead (BioSpec Products, Bartlesville, Okla.). Tissues were disrupted for four cycles of 45 seconds in a Mini-Beadbeater (Biospec Products). RNA was extracted in chloroform and the aqueous phase was mixed with an equal volume of 70% ethanol. Extracted RNA was applied to RNeasy 96 plates and purified by the spin method according to the manufacturer's protocol (RNeasy 96 Universal Tissue Protocol, QIAgen, Hilden Germany). 50 ul of snap frozen mouse blood was re-suspended in lysis buffer with proteinase K and arrayed into deep-well plates for automated RNA extraction. RNA extractions were completed on […] (Beckman Coulter, Indianapolis, Ind.) using Agencourt RNAdvance Blood kit (Part number A35604) according to the manufacturer's specifications. RNA integrity was assessed using the HT RNA reagent kit (Part number 760410, Caliper Life Sciences, Hopkinton, Mass.) using a LabChip GX (PerkinElmer, Waltham, Mass.). RNA samples with a RQS score of >8.0 were considered high quality for downstream microarray processing. […] Washing and staining of the hybridized arrays were completed as described in the GeneChip Expression analysis technical manual for HT plate arrays using the Genechip® Array Station (Affymetrix, Santa Clara, Calif.) with modifications as described in […] et al. The processed GeneChip® plate arrays were scanned using GeneTitan scanner (Affymetrix, Santa Clara, Calif.). Affymetrix scans were subject to quality control (QC) measures. These tests included a visual inspection of the distribution of raw signal intensities and an assessment of RNA degradation, relative log expression (RLE), and normalized unscaled standard error (NUSE). All sample scans that passed these QC metrics were included in the analysis. […] Nucleic Acids Res 2003; 31:e15; Li C, et al. Genome Biol 2001; 2:[…]0032). […] Stat Appl Genet Mol Biol 2004; 3:Article3). […] Springer Science+Business Media 2005). […] Generally, no distinct sample groupings were apparent from this analysis; however, in the following cohorts, differences in EAE severity across the mice were manifest in global gene expression patterns: An example of this animal grouping is shown in FIG. 33 for the spinal cord from the chronically-dosed 7 h EAE mice. […] Three distinct groups of mice result from unsupervised clustering, and these animal groups correlate with the cumulative EAE score. […] Subsequent analyses for the cohorts listed above only included those animals with the most severe EAE scores; however, for the cohorts 'Spinal Cord, Acute Dosing, 7 h' and 'Spleen, Acute Dosing, 12 h,' there were an insufficient number of mice in the different treatment groups to perform such a sub-analysis. […]

[1] = 100 mpk DMF-vs-90 mpk MMF, 7 h after last dosing
[2] = 100 mpk DMF-vs-90 mpk MMF, 12 h after last dosing
[3] = 100 mpk DMF-vs-Vehicle, 7 h after last dosing
[4] = 100 mpk DMF-vs-Vehicle, 12 h after last dosing
[5] = lymph node, 100DMF-vs-Veh, 12 h
[6] = whole blood, 100DMF-vs-Veh, 7 h

COC(=O)/C=C/C(=O)OC [DMF, dimethyl fumarate]
Number of differentially expressed genes identified: Brain [1]: 0 | Number of differentially expressed genes identified: Cerebellum [1]: 0 | Number of differentially expressed genes identified: Lymph Node [1]: 0 | Number of differentially expressed genes identified: Spleen [1]: 0 | Number of differentially expressed genes identified: Whole blood [1]: 0 | Number of differentially expressed genes identified: Brain [2]: 0 | Number of differentially expressed genes identified: Cerebellum [2]: 0 | Number of differentially expressed genes identified: Lymph Node [2]: 0 | Number of differentially expressed genes identified: Spinal Cord [2]: 0 | Number of differentially expressed genes identified: Whole blood [2]: 0 | Number of differentially expressed genes identified: Brain [3]: 0 | Number of differentially expressed genes identified: Cerebellum [3]: 0 | Number of differentially expressed genes identified: Lymph Node [3]: 7 | Number of differentially expressed genes identified: Spleen [3]: 21 | Number of differentially expressed genes identified: Whole blood [3]: 3 | Number of differentially expressed genes identified: Brain [4]: 0 | Number of differentially expressed genes identified: Cerebellum [4]: 0 | Number of differentially expressed genes identified: Lymph Node [4]: 2 | Number of differentially expressed genes identified: Spinal Cord [4]: 1 | Number of differentially expressed genes identified: Whole blood [4]: 0 | differentially expressed genes (cerebellum, 100DMF-vs-90MMF, 7 h): None | differentially expressed genes (cerebellum, 100DMF-vs-90MMF, 12 h): None | differentially expressed genes (cerebellum, 100DMF-vs-Veh, 7 h): None | differentially expressed genes (cerebellum, 100DMF-vs-Veh, 12 h): None | differentially expressed genes (lymph node, 100DMF-vs-90MMF, 7 h): None | differentially expressed genes (lymph node, 100DMF-vs-90MMF, 12 h): None | FC Aox1 (1419435_PM_at) (lymph node, 100DMF-vs-Veh, 7 h): 2.16 | FC F3 1417408_PM_at (lymph node, 100DMF-vs-Veh, 7 h): 1.59 | FC Gclm 1439050_PM_at (lymph node, 100DMF-vs-Veh, 7 h): 1.53 | FC Nqo1 (1423627_PM_at) (lymph node, 100DMF-vs-Veh, 7 h): 2.19 | FC Pir (1429001_PM_at) (lymph node, 100DMF-vs-Veh, 7 h): 1.52 | FC Srxn1 (1419942_PM_at) (lymph node, 100DMF-vs-Veh, 7 h): 1.71 | FC Srxn1 (1426875_PM_s_at) (lymph node, 100DMF-vs-Veh, 7 h): 1.68 | FC Aox1 (1419435_PM_at) [5]: 1.69 | FC Nqo1 (1423627_PM_at) [5]: 1.69 | differentially expressed genes (spinal cord, 100DMF-vs-90MMF, 12 h): None | FC Blvrb (1451386_PM_at) (spinal cord, 100DMF-vs-Veh, 12 h): 1.84 | differentially expressed genes (spleen, 100DMF-vs-90MMF, 7 h): None | FC 1441413_PM_at (spleen, 100DMF-vs-Veh, 7 h): 1.52 | FC 1458902_PM_at (spleen, 100DMF-vs-Veh, 7 h): 1.69 | FC Aox1 (1419435_PM_at) (spleen, 100DMF-vs-Veh, 7 h): 1.74 | FC Cat 1416430_PM_at (spleen, 100DMF-vs-Veh, 7 h): 1.63 | FC Dennd4a 1435975_PM_at (spleen, 100DMF-vs-Veh, 7 h): 1.56 | FC Dnmt31 1425035_PM_s_at (spleen, 100DMF-vs-Veh, 7 h): 1.81 | FC Gclm 1439050_PM_at (spleen, 100DMF-vs-Veh, 7 h): 2.02 | FC Gsta3 (1423436_PM_at) (spleen, 100DMF-vs-Veh, 7 h): 1.74 | FC Gsta3 (1423437_PM_at) (spleen, 100DMF-vs-Veh, 7 h): 1.55 | FC Higd1c /// Mettl7a1 /// Mettl7a2 1434150_PM_a_at (spleen, 100DMF-vs-Veh, 7 h): 2.00 | FC Il1f9 1425958_PM_at (spleen, 100DMF-vs-Veh, 7 h): 2.33 | FC Kif22 1437716_PM_x_at (spleen, 100DMF-vs-Veh, 7 h): 1.53 | FC LOC677317 /// Me1 1416632_PM_at (spleen, 100DMF-vs-Veh, 7 h): 1.52 | FC Nqo1 (1423627_PM_at) (spleen, 100DMF-vs-Veh, 7 h): 3.34 | FC Pir (1429001_PM_at) (spleen, 100DMF-vs-Veh, 7 h): 2.99 | FC Polh 1447837_PM_x_at (spleen, 100DMF-vs-Veh, 7 h): 1.51 | FC Srxn1 (1419942_PM_at) (spleen, 100DMF-vs-Veh, 7 h): 2.08 | FC Srxn1 (1426875_PM_s_at) (spleen, 100DMF-vs-Veh, 7 h): 2.08 | FC Srxn1 (1451680_PM_at) (spleen, 100DMF-vs-Veh, 7 h): 1.84 | FC Tmem41b 1428586_PM_at (spleen, 100DMF-vs-Veh, 7 h): 1.61 | FC Ugt1a1 /// Ugt1a10 /// Ugt1a2 /// Ugt1a5 /// Ugt1a6a /// Ugt1a6b /// Ugt1a7c /// Ugt1a9 (1426261_PM_s_at) (spleen, 100DMF-vs-Veh, 7 h): 1.51 | differentially expressed genes (whole blood, 100DMF-vs-Veh, 12 h): None | differentially expressed genes (whole blood, 100DMF-vs-90MMF, 7 h): None | differentially expressed genes (whole blood, 100DMF-vs-90MMF, 12 h): None | FC Dtx4 1436545_PM_at [6]: 1.72 | FC Egln3 1418649_PM_at [6]: 1.82 | FC Rnf128 (1449036_PM_at) [6]: 1.62
